Source: the supplement of paper PMC11208160

Experiment: recombinant barcode read abundance after kanamycin selection (control-corrected) (log10(CPM+1)); higher = more efficient recombination; sequences stand for … in AGTGCAGAGAAAATCGGCCAGTTTTCTCTGCCTGCAGTCCGCATGCCGT…AGATTTATGCAGCGGACTGCCTTTCTCCCAAAGTGATAAACCGGACAGTATCATGGACCGGTTTTCCCGGTAATCCGTATTTGCAAGGTTGGTTTCACT; site = the 11-nt target
Procedure, shortened: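 A vector carrying a T7-inducible recombinase and the last 73 bp of the bridge RNA received, by Gibson cloning, oligos encoding a promoter, target, barcode and the first 104 bridge RNA bases under J23119. The pooled constructs entered E. coli together with a donor plasmid by electroporation. Selection used chloramphenicol/ampicillin/kanamycin with 0.1 mM IPTG, with chloramphenicol/ampicillin LB agar as the control, each in two replicates. Recombination efficiency is the averaged, control-corrected counts-per-million of barcodes at recombinant junctions, reported as log10(CPM+1).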
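Further: IS621 recombinase and bridge RNA in Escherichia coli cells.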

Sequence	recombinant barcode read abundance (log10)
AGCCTGACTTGGGTTCTAACCTGTTGCCT (site AGCCTGGCTAG)	0.332
AGCCTGACTTGGGTTCTAACCTGTTGCCT (site AGCCTGTCTAG)	0
AGCCTGGCTTGGGTTCTAACCTGTTGCCT (site AGCCTGACTAG)	0.302
AGCCTGGCTTGGGTTCTAACCTGTTGCCT (site AGCCTGCCTAG)	0.235
AGCCTGGCTTGGGTTCTAACCTGTTGCCT (site AGCCTGGCTAG)	0.594
AGCCTGGCTTGGGTTCTAACCTGTTGCCT (site AGCCTGTCTAG)	0.0926
AGCGCTTCTTGGGTTCTAACCTGTTGCCT (site AACGCTTCTAG)	0.241
AGCGCTTCTTGGGTTCTAACCTGTTGCCT (site ACCGCTTCTAG)	0.423
AGCGCTTCTTGGGTTCTAACCTGTTGCCT (site AGCGCTTCTAG)	0.454
AGCGCTTCTTGGGTTCTAACCTGTTGCCT (site ATCGCTTCTAG)	0.0212
AGCGGACCTTGGGTTCTAACCTGTTGCCT (site AGCGGACCTAG)	1.45
AGCGGACCTTGGGTTCTAACCTGTTGCCT (site AGCGGCCCTAG)	0.133
AGCGGACCTTGGGTTCTAACCTGTTGCCT (site AGCGGGCCTAG)	0.188
AGCGGACCTTGGGTTCTAACCTGTTGCCT (site AGCGGTCCTAG)	0.0865
AGCTCACCTTGGGTTCTAACCTGTTGCCT (site AGCTCACCTAG)	0.216
AGCTCACCTTGGGTTCTAACCTGTTGCCT (site AGCTCATCTAG)	0.147
AGCTTACCTTGGGTTCTAACCTGTTGCCT (site AGCTTACCTAG)	0.204
AGCTTACCTTGGGTTCTAACCTGTTGCCT (site CGCTTACCTAG)	0.212
AGCTTACCTTGGGTTCTAACCTGTTGCCT (site GGCTTACCTAG)	0.105
AGCTTACCTTGGGTTCTAACCTGTTGCCT (site TGCTTACCTAG)	0.0503
AGCTTAGCTTGGGTTCTAACCTGTTGCCC (site AGCTTAGCTAG)	0.306
AGCTTAGCTTGGGTTCTAACCTGTTGCCC (site AGCTTAGCTCG)	0.0502

Sequence	recombinant barcode read abundance (log10)
AGCTTAGCTTGGGTTCTAACCTGTTGCCC (site AGCTTAGCTGG)	0.395
AGCTTAGCTTGGGTTCTAACCTGTTGCCC (site AGCTTAGCTTG)	0.0493
AGCTTGCCTTGGGTTCTAACCTGTTGCAG (site AGCTTGCCTCT)	0.717
AGCTTGCCTTGGGTTCTAACCTGTTGCAG (site CATAGCGCTAG)	0.277
AGCTTTGCTTGGGTTCTAACCTGTTGCCT (site AGCATTGCTAG)	0.015
AGCTTTGCTTGGGTTCTAACCTGTTGCCT (site AGCCTTGCTAG)	0.171
AGCTTTGCTTGGGTTCTAACCTGTTGCCT (site AGCGTTGCTAG)	0.669
AGCTTTGCTTGGGTTCTAACCTGTTGCCT (site AGCTTTGCTAG)	0.0693
AGGAACCCTTGGGTTCTAACCTGTTGCTG (site AGGAACCCTAA)	0.712
AGGAACCCTTGGGTTCTAACCTGTTGCTG (site AGGAACCCTCA)	1.78
AGGAACCCTTGGGTTCTAACCTGTTGCTG (site AGGAACCCTGA)	0.106
AGGAACCCTTGGGTTCTAACCTGTTGCTG (site AGGAACCCTTA)	0.08
AGGACGACTTGGGTTCTAACCTGTTGCCT (site AGCGCGACTAG)	0.0505
AGGACGACTTGGGTTCTAACCTGTTGCCT (site AGGACGACTAG)	0.376
AGGAGAACTTGGGTTCTAACCTGTTGCCT (site AGCATAACTAG)	0.447
AGGAGAACTTGGGTTCTAACCTGTTGCCT (site AGGAGAACTAG)	1.35
AGGAGCCCTTGGGTTCTAACCTGTTGCTC (site AGGAGCCCTAA)	0.124
AGGAGCCCTTGGGTTCTAACCTGTTGCTC (site AGGAGCCCTCA)	0.152
AGGAGCCCTTGGGTTCTAACCTGTTGCTC (site AGGAGCCCTGA)	0.377
AGGAGCCCTTGGGTTCTAACCTGTTGCTC (site AGGAGCCCTTA)	0.0844
AGGAGCCCTTGGGTTCTAACCTGTTGCTT (site AGGAGCCCTAA)	1.25
AGGAGCCCTTGGGTTCTAACCTGTTGCTT (site AGGAGCCCTCA)	0.0777

Sequence	recombinant barcode read abundance (log10)
AGGAGCCCTTGGGTTCTAACCTGTTGCTT (site AGGAGCCCTGA)	0.0286
AGGAGCCCTTGGGTTCTAACCTGTTGCTT (site AGGAGCCCTTA)	0.271
AGGAGCGCTTGGGTTCTAACCTGTTGCCT (site AGCAGCTCTAG)	0.105
AGGAGCGCTTGGGTTCTAACCTGTTGCCT (site AGGAGCGCTAG)	1.95
AGGAGTCCTTGGGTTCTAACCTGTTGCAG (site AGGAGTCCTCT)	2.24
AGGAGTCCTTGGGTTCTAACCTGTTGCAG (site GTACAAGCTAG)	0.239
AGGCAGACTTGGGTTCTAACCTGTTGCCA (site AGGAAGACTTG)	0.0571
AGGCAGACTTGGGTTCTAACCTGTTGCCA (site AGGCAGACTTG)	0.699
AGGCAGACTTGGGTTCTAACCTGTTGCCA (site AGGGAGACTTG)	0.216
AGGCAGACTTGGGTTCTAACCTGTTGCCA (site AGGTAGACTTG)	0.639
AGGCAGTCTTGGGTTCTAACCTGTTGCCT (site AGGCAGTCTAG)	0.444
AGGCAGTCTTGGGTTCTAACCTGTTGCCT (site AGGCCGTCTAC)	0.0845
AGGCGCCCTTGGGTTCTAACCTGTTGCAA (site AGGCGCCCTAT)	0.187
AGGCGCCCTTGGGTTCTAACCTGTTGCAA (site AGGCGCCCTCT)	0.0506
AGGCGCCCTTGGGTTCTAACCTGTTGCAA (site AGGCGCCCTGT)	0.0953
AGGCGCCCTTGGGTTCTAACCTGTTGCAA (site AGGCGCCCTTT)	0.635
AGGCTGACTTGGGTTCTAACCTGTTGCCT (site AGGCTGACTAG)	0.94
AGGCTGACTTGGGTTCTAACCTGTTGCCT (site AGGCTGCCTAG)	0.0128
AGGCTGACTTGGGTTCTAACCTGTTGCCT (site AGGCTGGCTAG)	0.0298
AGGCTGACTTGGGTTCTAACCTGTTGCCT (site AGGCTGTCTAG)	0.139
AGGCTTACTTGGGTTCTAACCTGTTGCAG (site AGGCTTACTCT)	1.47
AGGCTTACTTGGGTTCTAACCTGTTGCAG (site AGTCCTACTCT)	0.0844
